Results on two compounds are retold here after patent publication US5075464A, “17β-(cyclopropylamino)androstene derivatives” (Merrell Dow Pharmaceuticals Inc., priority 1989, dated 1991).

The target in this assay is T1, enzymes in the synthesis of aldosterone (Rattus norvegicus, UniProt P30099).
T1 construct: adrenal capsule/glomerulosa homogenates were prepared (6 mg/ml); from tissue; host or cells: adrenal capsule/glomerulosa of sodium-deficient young male Sprague-Dawley rats (homogenate, 500xg supernatant)
The assay is described as follows: inhibition of aldosterone formation from [3H]-DOC in adrenal capsule/glomerulosa homogenates. It is filed as biochemical, Sprague-Dawley rats. As to conditions: Kitz-Wilson plots, rat adrenal capsule/glomerulosa homogenate. The protocol:
Young male Sprague-Dawley rats were maintained on a sodium-deficient diet for about two weeks prior to use. From these animals, adrenal capsule/glomerulosa homogenates were prepared (6 mg/ml) in pH 7.4 assay buffer [MgCl2 8.5 mM, CaCl2 2.7 mM, KCl 3.13 mM, NaCl 7.591 mM, TRIS 50 mM and 0.1% triethylamine] and centrifuged 500xg for 10 minutes.
Assays were conducted in 35 ml glass tubes maintained at 25° C. in a Dubnoff shaker with 95% O2 /5% CO2. The tubes contained the following material: 100 μl of an NADPH+ generating system, 300 μl of adrenal capsular/glomerulosa cytosol, and 50 μl of test compound or buffer (control). After initial preincubation intervals of 20 minutes, the 10-minute assay was started by the addition of 50 μl of tritium-labelled substrate, i.e., 1 μM [^3 H]-DOC. Reactions were quenched by the addition of 5 ml of ethyl acetate and non-radiolabelled steroids were also added. […]
Substrate remaining and products formed were monitored by UV absorbance at 246 nm and the amount of steroid compound present was quantified by [^3 H] radioactivity. […] The Ki time-dependent inhibition and the t1/2 for enzyme inactivation at infinite inhibitor concentration (t50) was determined by the linear regression analyses of t1/2 vs. 1/[I] data of Kitz-Wilson plots Using this procedure, the following results were observed: […]

The structures appear in SMILES notation.

As to `CN(C1CC1)[C@H]1CC[C@H]2[C@@H]3CCC4=CC(=O)CC[C@]4(C)[C@H]3CC[C@]12C` [17β-[N-methyl(cyclopropylamino)]androst-4-en-3-one], the “t50 (t1/2 for enzyme inactivation at infinite inhibitor concentration)” value is recorded as 15.4 min. For the compound `CN(C1CC1)[C@H]1CC[C@H]2[C@@H]3CC=C4C[C@@H](O)CC[C@]4(C)[C@H]3CC[C@]12C` [17β-[N-methyl(cyclopropylamino)]androst-5-en-3β-ol], the “t50 (t1/2 for enzyme inactivation at infinite inhibitor concentration)” value came out at 9.0 min.
